# According to US20230127839A1, “COMPOUNDS AND COMPOSITIONS FOR TREATING CONDITIONS ASSOCIATED WITH STING ACTIVITY” (IFM Due, Inc., priority 2019, published 2023):
# Biological target: T1, hSTING (Homo sapiens, UniProt Q86WV6, G230A/H232R/R293Q/R71H)
# T1 construct: host or cells: THP1-Dual KO-IFNAR2 cells
# Assay: STING reporter assay (luciferase) in THP1-Dual KO-IFNAR2 cells stimulated with 2'3'cGAMP
# Format: cell-based
# Settings: 2'3'cGAMP 15 μM, 24 h, luciferase reporter activity
# How it was run: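 THP1-Dual KO-IFNAR2 cells (2×10E6 cells/mL) exposed to compounds at 0.0017-100 μM final, then stimulated with 2′3′cGAMP (15 μM final) delivered by Lipofectamine 2000 transfection. After 24 h at 37° C, secreted luciferase in supernatant read by QUANTI-Luc luminescence; EC50 calculated.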
# T1 sequence (Q86WV6 whole entry R71H/G230A/H232R/R293Q): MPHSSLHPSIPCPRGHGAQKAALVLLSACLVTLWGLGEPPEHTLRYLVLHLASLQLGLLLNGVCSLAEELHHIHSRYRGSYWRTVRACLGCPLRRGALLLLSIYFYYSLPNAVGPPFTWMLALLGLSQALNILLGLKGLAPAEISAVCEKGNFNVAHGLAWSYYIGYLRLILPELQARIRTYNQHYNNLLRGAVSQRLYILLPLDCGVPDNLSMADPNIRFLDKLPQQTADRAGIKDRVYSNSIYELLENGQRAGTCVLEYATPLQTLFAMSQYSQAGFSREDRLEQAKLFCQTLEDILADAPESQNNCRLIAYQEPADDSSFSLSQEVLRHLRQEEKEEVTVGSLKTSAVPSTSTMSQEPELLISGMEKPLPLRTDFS
row,EC50,SMILES
1,200 to 1000 nM,"O=C(Nc1cnc(N2CCC(F)(F)CC2)cn1)Nc1c[nH]c2ccccc12 [Compound 205, 1-(5-(4,4-difluoropiperidin-1-yl)pyrazin-2-yl)-3-(1H-indol-3-yl)urea]"
2,40 to 200 nM,"O=C(Nc1cnc(N2CCC(F)(F)CC2)c(Cl)c1)Nc1c[nH]c2ccccc12 [Compound 206, 1-(5-chloro-6-(4,4-difluoropiperidin-1-yl)pyridin-3-yl)-3-(1H-indol-3-yl)urea]"
3,40 to 200 nM,"N#Cc1cc(NC(=O)Nc2c[nH]c3ccccc23)ccc1C1CCC(F)(F)CC1 [Compound 207, 1-(3-cyano-4-(4,4-difluorocyclohexyl)phenyl)-3-(1H-indol-3-yl)urea]"
4,1000 to 5000 nM,"O=C(Nc1cnc(N2CCC(F)(F)CC2)c(Cl)c1)Nc1c[nH]c2ccc(Br)cc12 [Compound 208, 1-(5-bromo-1H-indol-3-yl)-3-(5-chloro-6-(4,4-difluoropiperidin-1-yl)pyridin-3-yl)urea]"
5,200 to 1000 nM,"O=C(Nc1cnn(C2CCC(F)(F)CC2)c1)Nc1c[nH]c2ccc(Cl)cc12 [Compound 209, 1-(5-chloro-1H-indol-3-yl)-3-(1-(4,4-difluorocyclohexyl)-1H-pyrazol-4-yl)urea]"
6,1000 to 5000 nM,"O=C(Nc1cn(C2CCC(F)(F)CC2)cn1)Nc1c[nH]c2ccc(F)cc12 [Compound 210, 1-[1-(4,4-difluorocyclohexyl)imidazol-4-yl]-3-(5-fluoro-1H-indol-3-yl)urea]"
7,1000 to 5000 nM,"O=C(Nc1ccn(C2CCC(F)(F)CC2)n1)Nc1c[nH]c2ccc(F)cc12 [Compound 211, 1-(1-(4,4-difluorocyclohexyl)-1H-pyrazol-3-yl)-3-(5-fluoro-1H-indol-3-yl)urea]"
8,1000 to 5000 nM,"O=C(Nc1cn(C2CCC(F)(F)CC2)cn1)Nc1c[nH]c2ccc(Cl)cc12 [Compound 212, 3-(5-chloro-1H-indol-3-yl)-1-[1-(4,4-difluorocyclohexyl)imidazol-4-yl]urea]"
9,1000 to 5000 nM,"O=C(Nc1ccnc(C2CCN(CC(F)(F)F)CC2)c1)Nc1c[nH]c2cc(F)c(F)cc12 [Compound 213, 1-(5,6-difluoro-1H-indol-3-yl)-3-(2-(1-(2,2,2-trifluoroethyl)piperidin-4-yl)pyridin-4-yl)urea]"
10,200 to 1000 nM,"O=C(Nc1cnn(C2CCC3(CC2)CC3)c1)Nc1c[nH]c2ccc(Cl)cc12 [Compound 214, 1-(5-chloro-1H-indol-3-yl)-3-(1-(spiro[2.5]octan-6-yl)-1H-pyrazol-4-yl)urea]"
11,200 to 1000 nM,"O=C(Nc1cnn(C2CC(F)(F)C2)c1)Nc1c[nH]c2ccc(Cl)cc12 [Compound 215, 1-(5-chloro-1H-indol-3-yl)-3-(1-(3,3-difluorocyclobutyl)-1H-pyrazol-4-yl)urea]"
12,1000 to 5000 nM,"O=C(Nc1cnn(C2CC(F)(F)C2)c1)Nc1c[nH]c2cc(F)c(F)cc12 [Compound 216, 1-(5,6-difluoro-1H-indol-3-yl)-3-(1-(3,3-difluorocyclobutyl)-1H-pyrazol-4-yl)urea]"
13,200 to 1000 nM,"CC(CC1CCC1)n1cc(NC(=O)Nc2c[nH]c3ccc(Cl)cc23)cn1 (centres unmarked) [Compound 217, 1-(5-chloro-1H-indol-3-yl)-3-(1-(1-cyclobutylpropan-2-yl)-1H-pyrazol-4-yl)urea]"
14,40 to 200 nM,"O=C(Nc1ccc(C2CN(CC(F)(F)F)C2)c(Cl)c1)Nc1c[nH]c2ccc(Cl)cc12 [Compound 218, 1-(5-chloro-1H-indol-3-yl)-3-(3-chloro-4-(1-(2,2,2-trifluoroethyl)azetidin-3-yl)phenyl)urea]"
15,1000 to 5000 nM,"O=C(Nc1ccnc(C2CCCN(CC(F)(F)F)C2)c1)Nc1c[nH]c2cc(F)c(F)cc12 (centres unmarked) [Compound 219, 1-(5,6-difluoro-1H-indol-3-yl)-3-(2-(1-(2,2,2-trifluoroethyl)piperidin-3-yl)pyridin-4-yl)urea]"
16,200 to 1000 nM,"O=C(Nc1ccnc(C2CCC(F)(F)CC2)c1)Nc1c[nH]c2cc(F)c(F)cc12 [Compound 220, 1-(5,6-difluoro-1H-indol-3-yl)-3-(2-(4,4-difluorocyclohexyl)pyridin-4-yl)urea]"
17,40 to 200 nM,"O=C(Nc1cc(Cl)nc(C2CCC(F)(F)CC2)c1)Nc1c[nH]c2ccc(Cl)cc12 [Compound 221, 1-(5-chloro-1H-indol-3-yl)-3-(2-chloro-6-(4,4-difluorocyclohexyl)pyridin-4-yl)urea]"
18,200 to 1000 nM,"O=C(Nc1cnn(CC2CCC(F)(F)CC2)c1)Nc1c[nH]c2ccc(Cl)cc12 [Compound 222, 1-(5-chloro-1H-indol-3-yl)-3-(1-((4,4-difluorocyclohexyl)methyl)-1H-pyrazo1-4-yl)urea]"
19,1000 to 5000 nM,"O=C(Nc1cnn(C2CCN(CCC(F)(F)F)CC2)c1)Nc1c[nH]c2ccc(Cl)cc12 [Compound 223, 1-(5-chloro-1H-indol-3-yl)-3-(1-(1-(3,3,3-trifluoropropyl)piperidin-4-yl)-1H-pyrazo1-4-yl)urea]"

row,EC50,SMILES
1,200 to 1000 nM,"O=C(Nc1ccc(C2CC(F)(F)C2)c(Cl)c1)Nc1c[nH]c2cc(F)c(F)cc12 [Compound 225, 1-(3-chloro-4-(3,3-difluorocyclobutyl)phenyl)-3-(5,6-difluoro-1H-indol-3-yl)urea]"
2,40 to 200 nM,"O=C(Nc1ccc(C2CC(F)(F)C2)c(Cl)c1)Nc1c[nH]c2ccc(Cl)cc12 [Compound 226, 1-(5-chloro-1H-indol-3-yl)-3-(3-chloro-4-(3,3-difluorocyclobutyl)phenyl)urea]"
3,40 to 200 nM,"O=C(Nc1cnc(C2CC(F)(F)C2)c(F)c1)Nc1c[nH]c2ccc(Cl)cc12 [Compound 227, 1-(5-chloro-1H-indol-3-yl)-3-(6-(3,3-difluorocyclobutyl)-5-fluoropyridin-3-yl)urea]"
4,200 to 1000 nM,"COCCN(C(=O)Nc1c[nH]c2ccc(Cl)cc12)c1cnc(C2CCC(F)(F)CC2)c(Cl)c1 [Compound 228, 3-(5-chloro-1H-indol-3-yl)-1-(5-chloro-6-(4,4-difluorocyclohexyl)pyridin-3-yl)-1-(2-methoxyethyl)urea]"
5,200 to 1000 nM,"CCN(C(=O)Nc1c[nH]c2ccc(Cl)cc12)c1cnc(C2CCN(CC(F)(F)F)CC2)c(Cl)c1 [Compound 229, 3-(5-chloro-1H-indol-3-yl)-1-(5-chloro-6-(1-(2,2,2-trifluoroethyl)piperidin-4-yl)pyridin-3-yl)-1-ethylurea]"
6,200 to 1000 nM,"O=C(Nc1cnn(C2CCC(F)(F)CC2)c1)Nc1c[nH]c2cc(F)c(Cl)cc12 [Compound 230, 1-(5-chloro-6-fluoro-1H-indol-3-yl)-3-(1-(4,4-difluorocyclohexyl)-1H-pyrazol-4-yl)urea]"
7,40 to 200 nM,"O=C(Nc1cnc(Cl)c(C2CCC(F)(F)CC2)c1)Nc1c[nH]c2ccc(Cl)cc12 [Compound 231, 1-(5-chloro-1H-indol-3-yl)-3-(6-chloro-5-(4,4-difluorocyclohexyl)pyridin-3-yl)urea]"
8,200 to 1000 nM,"O=C(Nc1cnc(N2CCC(F)(F)CC2)c(Cl)c1)Nc1c[nH]c2c(Br)cc(Cl)cc12 [Compound 232, 1-(7-bromo-5-chloro-1H-indol-3-yl)-3-(5-chloro-6-(4,4-difluoropiperidin-1-yl)pyridin-3-yl)urea]"
9,40 to 200 nM,"O=C(Nc1cnc(N2CC(C(F)(F)F)C2)c(Cl)c1)Nc1c[nH]c2ccc(Cl)cc12 [Compound 233, 1-(5-chloro-1H-indol-3-yl)-3-(5-chloro-6-(3-(trifluoromethyl)azetidin-1-yl)pyridin-3-yl)urea]"
10,40 to 200 nM,"O=C(Nc1cnn(C2CC3(C2)CC(F)(F)C3)c1)Nc1c[nH]c2ccc(Cl)cc12 [Compound 234, 1-(5-chloro-1H-indol-3-yl)-3-(1-(6,6-difluorospiro[3.3]heptan-2-yl)-1H-pyrazo1-4-yl)urea]"
11,200 to 1000 nM,"O=C(Nc1cnn(CC2CCC2)c1)Nc1c[nH]c2ccc(Cl)cc12 [Compound 235, 1-(5-chloro-1H-indol-3-yl)-3-(1-(cyclobutylmethyl)-1H-pyrazol-4-yl)urea]"
12,40 to 200 nM,"O=C(Nc1cnc(N2CCC3(CC2)CC3(F)F)c(Cl)c1)Nc1c[nH]c2cc(F)c(F)cc12 [Compound 236, 1-(5-chloro-6-(1,1-difluoro-6-azaspiro[2.5]octan-6-yl)pyridin-3-yl)-3-(5,6-difluoro-1H-indol-3-yl)urea]"
13,40 to 200 nM,"O=C(Nc1cnc(N2CCC3(CC2)CC3(F)F)c(Cl)c1)Nc1c[nH]c2ccc(Cl)cc12 [Compound 237, 1-(5-chloro-1H-indol-3-yl)-3-(5-chloro-6-(1,1-difluoro-6-azaspiro[2.5]octan-6-yl)pyridin-3-yl)urea]"
14,40 to 200 nM,"O=C(Nc1cnc(C2CCN(CC(F)(F)F)C2)c(Cl)c1)Nc1c[nH]c2ccc(Cl)cc12 (centres unmarked) [Compound 238, 1-(5-chloro-1H-indol-3-yl)-3-(5-chloro-6-(1-(2,2,2-trifluoroethyl)pyrrolidin-3-yl)pyridin-3-yl)urea]"
15,40 to 200 nM,"O=C(Nc1cnc(N2CCC3(CC2)CC3)c(Cl)c1)Nc1c[nH]c2ccc(F)cc12 [Compound 239, 1-(5-chloro-6-(6-azaspiro[2.5]octan-6-yl)pyridin-3-yl)-3-(5-fluoro-1H-indol-3-yl)urea]"
16,40 to 200 nM,"O=C(Nc1cnc(N2CCC3(CC2)CC3)c(F)c1)Nc1c[nH]c2ccc(Cl)cc12 [Compound 240, 1-(5-chloro-1H-indol-3-yl)-3-(5-fluoro-6-(6-azaspiro[2.5]octan-6-yl)pyridin-3-yl)urea]"
17,40 to 200 nM,"O=C(Nc1cnc(N2CCC3(CC2)CC3)c(Cl)c1)Nc1c[nH]c2cc(F)c(F)cc12 [Compound 241, 1-(5-chloro-6-(6-azaspiro[2.5]octan-6-yl)pyridin-3-yl)-3-(5,6-difluoro-1H-indol-3-yl)urea]"
18,40 to 200 nM,"O=C(Nc1cnc(C2CCN(CCC(F)(F)F)C2)c(Cl)c1)Nc1c[nH]c2ccc(Cl)cc12 (centres unmarked) [Compound 242, 1-(5-chloro-1H-indol-3-yl)-3-(5-chloro-6-(1-(3,3,3-trifluoropropyl)pyrrolidin-3-yl)pyridin-3-yl)urea]"
19,40 to 200 nM,"O=C(Nc1cnc(N2CCC(F)(F)C2)c(Cl)c1)Nc1c[nH]c2ccc(Cl)cc12 [Compound 243, 1-(5-chloro-1H-indol-3-yl)-3-(5-chloro-6-(3,3-difluoropyrrolidin-1-yl)pyridin-3-yl)urea]"
